From patent publication EP4818157A1, “N-SUBSTITUTED CYCLIC AMIDE COMPOUND” (Kissei Pharmaceutical Co., Ltd., priority 2023, dated 2025)

biological target: T1, human TSHR (Homo sapiens, UniProt P16473); experiment: Measurement of antagonist activity using TSH-induced cAMP production in human TSHR-stably expressing CHO cells; format: cell-based; details: human TSH final concentration 50 ng/mL
T1 construct: expressed in transfected cells
Description: Measurement of Antagonist Activity Using TSH-induced cAMP Production in Human TSHR-stably Expressing CHO Cells as an Indicator
A gene sequence of human TSHR (reference number NM_000369.2) was inserted into a multiple cloning site of pcDNA3.1(+). The prepared plasmid vector was introduced into CHO cells by a lipofection method to establish human TSHR stably expressing CHO cells. The obtained cells were seeded in a poly-D-lysine-coated 96-well plate at 5 x 10^4 cells/well, and cultured for 1 day in F12 medium containing 10% FBS, 400 µg/mL G418, 50 U/mL penicillin, and 50 µg/mL streptomycin under conditions of 37°C and 5% CO2. After removing a medium, the cells were washed twice with 100 µL per well of an assay buffer (Hanks' Balanced Salt Solution containing 20 mM HEPES and 1 mM IBMX). 30 µL of an assay buffer containing a test compound was added to a well, and the mixture was incubated at room temperature for 15 minutes. Next, 30 µL of an assay buffer containing human TSH (R&D Systems, Inc., final concentration 50 ng/mL) was added, and the mixture was incubated at 37°C for 1 hour. The supernatant was removed, and Lysis and Detection Buffer 2 (Cisbio) was added to prepare a cell lysate by incubating at room temperature for 1 hour. According to the instructions for use of a cAMP Gs HiRange kit (Cisbio), a cell lysate was reacted with d2-labeled cAMP and an anti-cAMP Europium Cryptate labeled antibody (Cisbio) in a 384-well white microplate. Next, a fluorescence intensity ratio (measurement wavelengths 665 nm/620 nm) was measured using a multiplate reader (PHERAstar FSX, BMG LABTECH Japan). A fluorescence intensity ratio of each sample was converted into a cAMP content using a standard curve. A cAMP content was converted into a percentage of a control value, and a cAMP production rate was calculated. Using Prism (Graph Pad Software Inc.), a cAMP production rate was plotted against a test compound concentration, and an IC50 value was calculated. The IC50 of each test compound is shown in the above tables. In the tables, IC50 < 3.0 µM was denoted as A, and 3.0 µM ≤ IC50 < 30 µM was denoted as B. The case where activity was observed but an IC50 value could not be calculated was denoted as C.

T1 sequence (P16473 21-764): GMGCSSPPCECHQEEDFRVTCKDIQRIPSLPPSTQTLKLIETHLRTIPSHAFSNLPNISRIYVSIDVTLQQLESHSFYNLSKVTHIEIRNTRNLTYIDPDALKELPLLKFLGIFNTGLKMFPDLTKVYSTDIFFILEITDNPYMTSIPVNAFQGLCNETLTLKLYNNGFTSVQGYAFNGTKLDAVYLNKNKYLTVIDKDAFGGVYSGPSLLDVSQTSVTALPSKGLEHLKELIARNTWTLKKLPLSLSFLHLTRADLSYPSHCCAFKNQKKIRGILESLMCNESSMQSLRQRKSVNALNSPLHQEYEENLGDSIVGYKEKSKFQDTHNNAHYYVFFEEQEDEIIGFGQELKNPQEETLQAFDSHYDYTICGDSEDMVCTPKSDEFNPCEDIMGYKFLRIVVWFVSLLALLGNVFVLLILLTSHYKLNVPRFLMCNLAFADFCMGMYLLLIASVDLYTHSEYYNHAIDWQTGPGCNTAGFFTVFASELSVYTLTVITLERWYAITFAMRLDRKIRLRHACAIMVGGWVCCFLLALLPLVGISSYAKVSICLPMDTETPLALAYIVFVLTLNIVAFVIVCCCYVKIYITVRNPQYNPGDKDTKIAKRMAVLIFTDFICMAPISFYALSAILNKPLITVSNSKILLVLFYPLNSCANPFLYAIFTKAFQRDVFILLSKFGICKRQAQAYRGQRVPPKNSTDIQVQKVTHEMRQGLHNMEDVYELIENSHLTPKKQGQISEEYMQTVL

Structure (SMILES) | IC50 [µM]
C[C@@H]1CC[C@@H](NC(N)=O)C(=O)N1Cc1cc(C#CC2CC2)ccc1F (relative stereo) [Example A-10, 1-((3R^*,6R^*)-1-(5-(cyclopropylethynyl)-2-fluorobenzyl)-6-methyl-2-oxopiperidin-3-yl)urea] | 3 to 30
NC(=O)NC1CCC2(CC2)N(Cc2cccc(C(F)(F)F)c2)C1=O (centres unmarked) [Example A-20, 1-(5-oxo-4-(3-(trifluoromethyl)benzyl)-4-azaspiro[2.5]octan-6-yl)urea] | 3 to 30
NC(=O)N[C@@H]1CC[C@@H](C(F)(F)F)N(Cc2cc(OC(F)(F)C(F)F)ccc2F)C1=O [Example A-16, 1-((3R,6S)-1-(2-fluoro-5-(1,1,2,2-tetrafluoroethoxy)benzyl)-2-oxo-6-(trifluoromethyl)piperidin-3-yl)urea] | < 3
NC(=O)N[C@@H]1Cc2ccc(C(F)F)cc2N(Cc2cc(OC(F)(F)F)ccc2F)C1=O [Example C-18, (R)-1-(7-(difluoromethyl)-1-(2-fluoro-5-(trifluoromethoxy)benzyl)-2-oxo-1,2,3,4-tetrahydroquinolin-3-yl)urea] | < 3
NC(=O)N[C@@H]1Cc2ccccc2N(CCc2ccccc2)C1=O [Example C-25, (R)-1-(2-oxo-1-phenethyl-1,2,3,4-tetrahydroquinolin-3-yl)urea] | 3 to 30
NC(=O)Nc1ccc2n(c1=O)CC(c1cccc(C(F)(F)F)c1)C2 (centres unmarked) [Example E-7, 1-(5-oxo-2-(3-(trifluoromethyl)phenyl)-1,2,3,5-tetrahydroindolizin-6-yl)urea] | 3 to 30
COCc1ccc(NC(N)=O)c(=O)n1Cc1cc(C(F)(F)F)cc(Cl)c1F [Example E-2, 1-(1-(3-chloro-2-fluoro-5-(trifluoromethyl)benzyl)-6-(methoxymethyl)-2-oxo-1,2-dihydropyridin-3-yl)urea] | < 3
NC(=O)N[C@@H]1CC[C@@H](C(F)(F)F)N(Cc2cc(C(F)(F)F)ccc2F)C1=O [Example A-14, 1-((3R,6S)-1-(2-fluoro-5-(trifluoromethyl)benzyl)-2-oxo-6-(trifluoromethyl)piperidin-3-yl)urea] | < 3
Cc1ccc(NC(N)=O)c(=O)n1Cc1cc(C(F)(F)F)cc(Cl)c1F [Example B-5, 1-(1-(3-chloro-2-fluoro-5-(trifluoromethyl)benzyl)-6-methyl-2-oxo-1,2-dihydropyridin-3-yl)urea] | < 3
COc1cccc(CN2C(=O)[C@H](NC(N)=O)Cc3ccccc32)c1 [Example C-3, (R)-1-(1-(3-methoxybenzyl)-2-oxo-1,2,3,4-tetrahydroquinolin-3-yl)urea] | > 30
C[C@@H]1CC[C@@H](NC(N)=O)C(=O)N1Cc1cc(Cc2ccccc2)ccc1F (relative stereo) [Example A-5, 1-((3R^*,6R^*)-1-(5-benzyl-2-fluorobenzyl)-6-methyl-2-oxopiperidin-3-yl)urea] | < 3
CNC(=O)N[C@@H]1CC[C@@H](C(F)(F)F)N(Cc2cc(C(F)(F)F)ccc2F)C1=O [Example A-24, 1-((3R,6S)-1-(2-fluoro-5-(trifluoromethyl)benzyl)-2-oxo-6-(trifluoromethyl)piperidin-3-yl)-3-methylurea] | < 3
CC(C)(C)OC(=O)NCCc1cc(NC(N)=O)c(=O)n(Cc2cc(C(F)(F)F)ccc2F)c1 [Example B-3, tert-butyl (2-(1-(2-fluoro-5-(trifluoromethyl)benzyl)-6-oxo-5-ureido-1,6-dihydropyridin-3-yl)ethyl)carbamate] | < 3
NC(=O)N[C@@H]1Cc2ccncc2N(Cc2cccc(C(F)(F)F)c2)C1=O [Example C-23, (R)-1-(2-oxo-1-(3-(trifluoromethyl)benzyl)-1,2,3,4-tetrahydro-1,7-naphthyridin-3-yl)urea] | 3 to 30
CN(C)C(=O)C[C@@H]1CC[C@@H](NC(N)=O)C(=O)N1Cc1cc(C(F)(F)F)ccc1F (relative stereo) [Example D-10, 2-((2S^*,5R^*)-1-(2-fluoro-5-(trifluoromethyl)benzyl)-6-oxo-5-ureidopiperidin-2-yl)-N,N-dimethylacetamide] | > 30
NC(=O)N[C@@H]1Cc2ccc(CO)cc2N(Cc2cc(C(F)F)ccc2F)C1=O [Example C-16, (R)-1-(1-(5-(difluoromethyl)-2-fluorobenzyl)-7-(hydroxymethyl)-2-oxo-1,2,3,4-tetrahydroquinolin-3-yl)urea] | < 3
CO[C@@H](C)C(=O)N[C@@H]1CC[C@@H](C(F)(F)F)N(Cc2cc(C(F)(F)F)ccc2F)C1=O [Example A-25, (S)-N-((3R,6S)-1-(2-fluoro-5-(trifluoromethyl)benzyl)-2-oxo-6-(trifluoromethyl)piperidin-3-yl)-2-methoxypropanamide] | > 30
NC(=O)N[C@@H]1C[C@H](F)CN(Cc2cc(C(F)(F)F)ccc2F)C1=O [Example A-18, 1-((3R,5S)-5-fluoro-1-(2-fluoro-5-(trifluoromethyl)benzyl)-2-oxopiperidin-3-yl)urea] | > 30
NC(=O)Nc1cc(C(F)(F)F)cn(Cc2cc(C(F)(F)F)ccc2F)c1=O [Example B-6, 1-(1-(2-fluoro-5-(trifluoromethyl)benzyl)-2-oxo-5-(trifluoromethyl)-1,2-dihydropyridin-3-yl)urea] | < 3
Cc1ccc2c(c1)N(Cc1cccc(C(F)(F)F)c1)C(=O)[C@H](NC(N)=O)C2 [Example C-6, (R)-1-(7-methyl-2-oxo-1-(3-(trifluoromethyl)benzyl)-1,2,3,4-tetrahydroquinolin-3-yl)urea] | < 3
NC(=O)N[C@@H]1CC[C@@H](CO)N(Cc2cc(C(F)(F)F)ccc2F)C1=O [Example D-4, 1-((3R,6S)-1-(2-fluoro-5-(trifluoromethyl)benzyl)-6-(hydroxymethyl)-2-oxopiperidin-3-yl)urea] | 3 to 30
CC(C)(C)OC(=O)NCC[C@@H]1C[C@H](NC(N)=O)C(=O)N(Cc2cc(C(F)(F)F)ccc2F)C1 (relative stereo) [Example A-19, tert-butyl (2-((3R*,5S*)-1-(2-fluoro-5-(trifluoromethyl)benzyl)-6-oxo-5-ureidopiperidin-3-yl)ethyl)carbamate] | < 3
C[C@@H]1CC[C@@H](NC(N)=O)C(=O)N1Cc1cc(C#Cc2ccccc2)ccc1F (relative stereo) [Example A-7, 1-((3R^*,6R^*)-1-(2-fluoro-5-(phenylethynyl)benzyl)-6-methyl-2-oxopiperidin-3-yl)urea] | < 3
CNC(=O)N[C@@H]1Cc2ccc(C(F)(F)F)cc2N(Cc2cc(C(F)F)ccc2F)C1=O [Example C-28, (R)-1-(1-(5-(difluoromethyl)-2-fluorobenzyl)-2-oxo-7-(trifluoromethyl)-1,2,3,4-tetrahydroquinolin-3-yl)-3-methylurea] | < 3
CN(C)Cc1ccc(NC(N)=O)c(=O)n1Cc1cc(C(F)(F)F)cc(Cl)c1F [Example E-3, 1-(1-(3-chloro-2-fluoro-5-(trifluoromethyl)benzyl)-6-((dimethylamino)methyl)-2-oxo-1,2-dihydropyridin-3-yl)urea] | < 3
CCOC[C@@H]1CC[C@@H](NC(N)=O)C(=O)N1Cc1cc(C(F)(F)F)ccc1F [Example D-7, 1-((3R,6S)-6-(ethoxymethyl)-1-(2-fluoro-5-(trifluoromethyl)benzyl)-2-oxopiperidin-3-yl)urea] | < 3
